How the values were obtained:
Human CYP17 = Human CYP17 (Homo sapiens (Human), UniProt P05093); experiment: CYP17 Total SPA assay; format: biochemical; settings: microsomes from HEK2 cells stably transfected with CYP17; 3H-Pregnenolone 1 uM, NADPH 2 mM
Procedure: The assays were performed in U-bottom 384-well optiplates. The final assay volume was 15 μl prepared from 7.5 μl additions of microsomes (prepared as a high-speed pellet from homogenized HEK2 cells stably transfected with CYP17), substrates (3H-Pregnenolone and NADPH) and test compounds in assay buffer (50 mM Potassium phosphate pH 7.2, 10% glycerol). The reaction was initiated by the combination of the microsomes and substrates in wells containing compound. The reaction was incubated at room temperature for 45 minutes and terminated by adding 7.5 μl of 0.2N HCl to each well. Following an incubation period of 10 minutes, anti-DHEA-coated SPA beads were added to the terminated reaction. The plate was sealed and incubated overnight with shaking at 4° C. The beads were allowed to settle in the plate for 1 hour and the plate read on a TOPCOUNT® (Perkin-Elmer) plate reader.
Inhibition data were calculated by comparison to no enzyme control reactions for 100% inhibition and vehicle-only reactions for 0% inhibition. The final concentration of reagents in the assays are NADPH, 2 mM; 3H-Pregnenolone, 1 uM; microsomes, 1.25 ug/ml; Anti-DHEA-SPA beads (0.125 mg/well) in 0.5% Triton X-100 and DMSO, 0.05%. Dose response curves were generated to determine the concentration required inhibiting 50% of enzyme activity (IC50). Compounds were dissolved at 10 mM in dimethylsulfoxide (DMSO) and evaluated at eleven concentrations, each in duplicate. IC50 values were derived by non-linear regression analysis.

testosterone levels = experiment: 1-Day Cyno PK/PD study; format: in vivo; settings: cynomolgus monkeys, single oral dose 3 mg/Kg in 80% PEG-400/water, plasma, over 24 hour period
Procedure: 1-Day Cyno PK/PD Study Protocol
Animals: All procedures involving animals and their care were conducted in conformity with the guidelines that are in compliance with the Bristol-Myers Squibb Institutional Animal Care and Use Committee. Fully mature male cynomolgus monkeys (>4 yrs of age; 5-6 kg) were from an in-house colony. All the monkeys used had chronically implanted femoral vein access ports. For oral studies, all animals were fasted overnight prior to dosing and were fed 4 hr after dosing. All animals had free access to water and were conscious throughout the study.
Drug: For all oral pharmacokinetic studies in cynomolgus monkeys, the tested compound was formulated in polyethylene glycol (PEG 400): water (80:20, v:v) at concentrations of 1-5 mg/mL. […]
Sampling: Blood samples were collected from the femoral port, at 15, 30, and 45 min, and 1, 2, 4, 6, 8, 12, 24, 30, and 48 hr after oral administration. […] The plasma fraction was immediately separated by centrifugation (14,000 rpm, 10 min, 4° C.), frozen on dry ice, and stored at −20° C. until the samples were analyzed.
Analysis of Tested Compound: Plasma samples were thawed and treated with two volumes of acetonitrile containing internal standard. After centrifugation to remove precipitated proteins, an aliquot of supernatant was analyzed by LC/MS/MS. […]

Chain of Human CYP17 (P05093 whole entry): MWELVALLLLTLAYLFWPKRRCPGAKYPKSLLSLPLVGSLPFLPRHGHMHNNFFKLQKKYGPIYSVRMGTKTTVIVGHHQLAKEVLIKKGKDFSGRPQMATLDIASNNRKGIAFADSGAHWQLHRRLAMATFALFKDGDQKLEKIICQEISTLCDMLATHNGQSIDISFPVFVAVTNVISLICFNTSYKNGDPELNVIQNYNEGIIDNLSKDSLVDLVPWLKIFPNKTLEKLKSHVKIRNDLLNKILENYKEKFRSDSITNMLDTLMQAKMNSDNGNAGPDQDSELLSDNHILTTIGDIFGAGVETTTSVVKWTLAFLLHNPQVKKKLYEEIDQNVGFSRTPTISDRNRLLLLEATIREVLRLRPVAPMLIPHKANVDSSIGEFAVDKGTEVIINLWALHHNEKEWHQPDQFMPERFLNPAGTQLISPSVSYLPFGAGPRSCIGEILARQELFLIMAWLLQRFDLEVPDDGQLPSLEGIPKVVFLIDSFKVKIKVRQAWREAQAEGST

IC50 (Human CYP17) [nM]	SMILES	testosterone levels (testosterone levels) [ng/dL]
9	Cc1ccncc1-c1ccnn2c(-c3cccs3)cnc12 [Example 35, 8-(4-methylpyridin-3-yl)-3-(thiophen-2-yl)imidazo[1,2-b]pyridazine]	–
129	Cc1ccncc1-c1ccnn2c(-c3cccc(C(F)(F)F)c3)cnc12 [Example 37, 8-(4-methylpyridin-3-yl)-3-(3-(trifluoromethyl)phenyl)imidazo[1,2-b]pyridazine]	–
279	Cc1cc(C)cc(-c2cnc3c(-c4cnccc4C)ccnn23)c1 [Example 38, 3-(3,5-dimethylphenyl)-8-(4-methylpyridin-3-yl)imidazo[1,2-b]pyridazine]	–

Continued, compound first:

SMILES	IC50 (Human CYP17) [nM]	testosterone levels (testosterone levels) [ng/dL]
Cc1ccncc1-c1ccnn2c(-c3ccccc3)cnc12 [Example 1, 8-(4-Methylpyridin-3-yl)-3-phenylimidazo[1,2-b]pyridazine]	41	–
COc1ccccc1-c1cnc2c(-c3cnccc3C)ccnn12 [Example 3, 3-(2-Methoxyphenyl)-8-(4-methylpyridin-3-yl)imidazo[1,2-b]pyridazine]	16	–
Cc1ccncc1-c1ccnn2c(-c3ccc(F)cc3)cnc12 [Example 7, 3-(4-fluorophenyl)-8-(4-methylpyridin-3-yl)imidazo[1,2-b]pyridazine]	56	~15
Cc1cccc(-c2cnc3c(-c4cnccc4C)ccnn23)c1 [Example 9, 8-(4-methylpyridin-3-yl)-3-m-tolylimidazo[1,2-b]pyridazine]	120	–
Cc1ccncc1-c1ccnn2c(-c3cccc(Cl)c3)cnc12 [Example 11, 3-(3-chlorophenyl)-8-(4-methylpyridin-3-yl)imidazo[1,2-b]pyridazine]	97	–
Fc1ccc(-c2cnc3c(-c4cccnc4)ccnn23)cc1 [Example 26, 3-(4-fluorophenyl)-8-(pyridin-3-yl)imidazo[1,2-b]pyridazine]	524	–
Cc1ccncc1-c1ccnn2c(-c3cc(Cl)cc(Cl)c3)cnc12 [Example 34, 3-(3,5-dichlorophenyl)-8-(4-methylpyridin-3-yl)imidazo[1,2-b]pyridazine]	664	–

From US9145419B2, “Imidazopyridazinyl compounds” (Bristol-Myers Squibb Company, priority 2010, dated 2015)
